Data taken from ChEMBL document CHEMBL1139066, “Analogues of 2-crotonyloxymethyl-(4R,5R,6R)-4,5,6-trihydroxycyclohex-2-enone (COTC) with anti-tumor properties” (Bioorg Med Chem Lett, 2007).

Tests used:
A549 = assay: Cytotoxicity against human A549 cells by MTT assay; type: functional, cell-based
NCI-H460 = assay: Cytotoxicity against human H460 cells by MTT assay; type: functional, cell-based

SMILES	IC50 (A549) [µM]	IC50 (NCI-H460) [µM]
C/C=C/C(=O)OCC1=CC(O)CCC1=O (configuration not stated)	24	10
C/C=C/C(=O)OCC1=C[C@@H](O)[C@H](O)CC1=O	147	158
C/C=C/C(=O)OCC1=C[C@H]2O[C@](C)(OC)[C@@](C)(OC)O[C@@H]2[C@H](F)C1=O	31	43
C/C=C/C(=O)OCC1=C[C@@H](O)[C@H](O)[C@H](F)C1=O	164	> 200
C/C=C/C(=O)OCC1=CCCCC1=O	55	40
C/C=C/C(=O)OCC1=C[C@H]2O[C@](C)(OC)[C@@](C)(OC)O[C@@H]2CC1=O	32	60
